Experimental data: patent publication US20230097753A1, “ALPHA-HYDROXYLATED FATTY-ACID METABOLITES, MEDICAL USES AND USE AS BIOMARKERS” (UNIVERSITAT DE LES ILLES BALEARS, priority 2020, published 2023)

Key:
[1] = Brain fatty acid levels in WT and 5xFAD mice after chronic oral treatment; assay type: in vivo, mouse; details: for Brain levels after treatment with DHA-H sodium salt: oral 5-200 mg/kg, 4 months
Protocol: FIG. 2. […] Brain levels of HPA (Al) or DHA (A2) (nmoles/mg of protein) are represented in the ordinate axis, with respect to treatment doses with the sodium salt of DHA-H (A1) and the sodium salt of DHA (A1 and A2) (mg/kg). A1: • animals WT; ∘ 5xFAD. A2: Black bars refer to WT animals and white bars to 5xFAD. The levels of HPA and DHA were determined in the brain of WT and 5xFAD mice after chronic administration of DHA-H sodium salt (4 months; 5 doses/week M-F; between 3 and 7 months of age; sacrifice at 7 months). HPA accumulates in the brain of both mouse strains similarly, depending on the dose of DHA-H sodium salt administered (A1: • r2=0.9292, p=0.0002; ∘ r2=0.9704, p<0.0001). […] Data are shown as mean±standard error, and statistical analysis was done by one-way ANOVA and Tukey multiple evaluation test: *p<0.05 compared to control (mice treated with vehicle). Therefore, when the prodrug DHA-H, in particular its sodium salt, is administered in healthy mice and transgenic models of Alzheimer's disease, a significant accumulation of HPA occurs at the brain level, without the presence of the prodrug (DHA-H) being detected, nor changes in endogenous levels of DHA. […] The number of total errors (B1), reference memory errors (RME) (B2) or working memory errors (WME) (B3), committed, are represented in the ordinate axis against the brain levels of HPA (nmol/mg of protein) in the abscissa axis. The cognitive assessment was done by testing the 8-arm radial labyrinth during the last month of treatment of the same animals shown in FIG. 2A. Individual experimental points from the entire study animal population were plotted and the data from the 5xFAD animals were adjusted to an inverse polynomial regression f(x)=y0+(a/x). The values of r^2 and p corresponding to the regression of each parameter are shown below: total errors, RME and WME versus the brain concentration of HPA: C1: r^2=0.9146 and p=0.0311; C2: r^2=0.9252 and p=0.0243; C3: r^2=0.7785 and p=0.0346. […]

MIA-PaCa 2 = assay: IC50 in tumor cell cultures (cell survival, XTT / trypan blue); assay type: cell-based; details: Homo sapiens; MIA-PaCa 2 pancreatic cancer cell line
Protocol: (§1) Cell survival was analyzed in a Barker chamber using trypan blue vital exclusion staining (Scharlab) or by cell proliferation kit II (Roche). Briefly, the cells were seeded in 96-well plates at a density of 3 x 10^3 cells per well 24 h prior to treatment, and then cultured in the presence or absence of compounds of interest at the concentrations and for the times indicated in the figures. After different times, plaque viable cells were determined by the addition of XTT according to the manufacturers instructions. Cells were incubated at 37° C. in 5% CO2 until a constant color was developed and absorbance was recorded at 495 nm using a microplate reader with a reference wavelength of 650 nm (FLUOstar Omega, BMG LABTECH, Germany).
(§2) The anti-tumor activity of the different metabolites described in FIGS. 8 and 9 was determined by direct treatment with these molecules (HDA or C17:2 ω-6, HTA ω-3 or C17:3 ω-3, HTA ω-6 or C17:3 ω-6, NTA or C19:4 ω-6, NPA or C19:5 ω-3, and HPA or C21:5 ω-3) in tumor cell cultures, on which the IC50 value for each of these compounds was determined (Inhibitory Concentration 50: concentration of study compound that induces death of 50% of the tumor cell population).

A549 = assay: as above; assay type: cell-based; details: A549 human lung adenocarcinoma cell line
Protocol: as §1, §2

Compound	Brain levels after treatment with DHA-H sodium salt [1]	IC50 (MIA-PaCa 2)	IC50 (A549)	Brain DHA levels after treatment [1]
CC/C=C\C/C=C\C/C=C\C/C=C\C/C=C\CCCCC(=O)O [HPA, (6Z,9Z,12Z,15Z,18Z)-heneicosa-6,9,12,15,18-pentaenoic acid]	dose-dependent brain accumulation	58 ± 17 µM	228 ± 3 µM	–
CCC=CCC=CCC=CCC=CCC=CCC=CCC(O)C(=O)O (centres unmarked) [DHA-H, 2-hydroxy-drocosahexaenoic acid]	undetectable in the brain	–	–	did not vary significantly
